According to PMC10620772, “Design, synthesis, and biological evaluation of new pyrimidine-5-carbonitrile derivatives as novel anti-cancer, dual EGFR^WT/COX-2 inhibitors with docking studies” (RSC Advances, 2023):

How the values were obtained:
Test in all cases: NCI60 antitumor screening
Type in all cases: cell-based, human
[1] = system: M14
[2] = system: MDA-MB-435
[3] = system: SK-MEL-28
[4] = system: SK-MEL-5
[5] = system: UACC-257
[6] = system: UACC-62
[7] = system: IGROV1
[8] = system: OVCAR-3
[9] = system: OVCAR-8
[10] = system: 786–0
[11] = system: A498
[12] = system: CAKI-1
[13] = system: RXF 393
[14] = system: SN12C
[15] = system: TK-10
[16] = system: UO-31; conditions: Homo sapiens; 10 μM single dose; UO-31 (renal cancer); read-out: growth inhibition percent (GI%)
[17] = system: PC-3
[18] = system: DU-145
[19] = system: T-47D
[20] = system: MDA-MB-468
[21] = Homo sapiens, MDA-MB-468, five-dose

**Q.** Which results are given for `N#Cc1c(-c2ccc(F)cc2)nc(SCc2ccccc2)nc1N1CCNCC1` [4e, 2-(Benzylthio)-4-(4-fluorophenyl)-6-(piperazin-1-yl) pyrimidine-5-carbonitrile]?
**A.** inhibition at 10 µM ([1]; Homo sapiens, 10 μM single dose, M14 (melanoma), read-out: growth inhibition percent (GI%)): > 100%; TGI ([1]; five-dose): 24.80 µM; GI50 ([2]; Homo sapiens, MDA-MB-435, five-dose): 16.9 µM; CC50 ([2]; Homo sapiens, MDA-MB-435, five-dose, read-out: LC50 (the source's name)): 58.8 µM; inhibition at 10 µM ([2]; Homo sapiens, 10 μM single dose, MDA-MB-435 (melanoma), read-out: growth inhibition percent (GI%)): > 100%; TGI ([2]; five-dose): 31.50 µM; GI50 ([3]; Homo sapiens, SK-MEL-28, five-dose): 16.3 µM; CC50 ([3]; Homo sapiens, SK-MEL-28, five-dose, read-out: LC50 (the source's name)): 56.3 µM; inhibition at 10 µM ([3]; Homo sapiens, 10 μM single dose, SK-MEL-28 (melanoma), read-out: growth inhibition percent (GI%)): > 100%; TGI ([3]; five-dose): 30.30 µM; GI50 ([4]; Homo sapiens, SK-MEL-5, five-dose): 15.7 µM; CC50 ([4]; Homo sapiens, SK-MEL-5, five-dose, read-out: LC50 (the source's name)): 54.5 µM; inhibition at 10 µM ([4]; Homo sapiens, 10 μM single dose, SK-MEL-5 (melanoma), read-out: growth inhibition percent (GI%)): > 100%; TGI ([4]; five-dose): 29.20 µM; GI50 ([5]; Homo sapiens, UACC-257, five-dose): 13.1 µM; CC50 ([5]; Homo sapiens, UACC-257, five-dose, read-out: LC50 (the source's name)): 52.6 µM; inhibition at 10 µM ([5]; Homo sapiens, 10 μM single dose, UACC-257 (melanoma), read-out: growth inhibition percent (GI%)): > 100%; TGI ([5]; five-dose): 26.20 µM; GI50 ([6]; Homo sapiens, UACC-62, five-dose): 14.4 µM; CC50 ([6]; Homo sapiens, UACC-62, five-dose, read-out: LC50 (the source's name)): 55 µM; inhibition at 10 µM ([6]; Homo sapiens, 10 μM single dose, UACC-62 (melanoma), read-out: growth inhibition percent (GI%)): > 100%; TGI ([6]; five-dose): 28.20 µM; inhibition at 10 µM ([7]; Homo sapiens, IGROV-1, 10 μM single dose, IGROV1 (ovarian cancer), read-out: growth inhibition percent (GI%)): > 100%; GI50 ([7]; Homo sapiens, IGROV-1, five-dose): 14.7 µM; CC50 ([7]; Homo sapiens, IGROV-1, five-dose, read-out: LC50 (the source's name)): 56.7 µM; TGI ([7]; five-dose): 28.90 µM; GI50 ([8]; Homo sapiens, OVCAR-3, five-dose): 14.3 µM; CC50 ([8]; Homo sapiens, OVCAR-3, five-dose, read-out: LC50 (the source's name)): 59.1 µM; inhibition at 10 µM ([8]; Homo sapiens, 10 μM single dose, OVCAR-3 (ovarian cancer), read-out: growth inhibition percent (GI%)): > 100%; TGI ([8]; five-dose): 29.10 µM; GI50 ([9]; Homo sapiens, OVCAR-8, five-dose): 6.21 µM; CC50 ([9]; Homo sapiens, OVCAR-8, five-dose, read-out: LC50 (the source's name)): 59.1 µM; inhibition at 10 µM ([9]; Homo sapiens, 10 μM single dose, OVCAR-8 (ovarian cancer), read-out: growth inhibition percent (GI%)): > 100%; TGI ([9]; five-dose): 21.80 µM; GI50 ([10]; Homo sapiens, 786-0, five-dose): 11 µM; LC50 (concentration killing 50% of tumour cells) ([10]; Homo sapiens, 786-0, five-dose): 58.9 µM; inhibition at 10 µM ([10]; Homo sapiens, 10 μM single dose, 786–0 (renal cancer), read-out: growth inhibition percent (GI%)): > 100%; TGI ([10]; five-dose): 25.40 µM; GI50 ([11]; Homo sapiens, A498, five-dose): 13.1 µM; LC50 ([11]; Homo sapiens, A498, five-dose): 56.9 µM; inhibition at 10 µM ([11]; Homo sapiens, 10 μM single dose, A498 (renal cancer), read-out: growth inhibition percent (GI%)): > 100%; TGI ([11]; five-dose): 27.30 µM; GI50 ([12]; Homo sapiens, CAKI-1, five-dose): 16 µM; CC50 ([12]; Homo sapiens, CAKI-1, five-dose, read-out: LC50 (the source's name)): 55.1 µM; inhibition at 10 µM ([12]; Homo sapiens, 10 μM single dose, CAKI-1 (renal cancer), read-out: growth inhibition percent (GI%)): > 100%; TGI ([12]; five-dose): 29.70 µM; GI50 ([13]; Homo sapiens, RXF 393, five-dose): 3.14 µM; CC50 ([13]; Homo sapiens, RXF 393, five-dose, read-out: LC50 (the source's name)): 44.2 µM; inhibition at 10 µM ([13]; Homo sapiens, 10 μM single dose, RXF 393 (renal cancer), read-out: growth inhibition percent (GI%)): > 100%; TGI ([13]; five-dose): 14.80 µM; GI50 ([14]; Homo sapiens, SN12C, five-dose): 13.8 µM; CC50 ([14]; Homo sapiens, SN12C, five-dose, read-out: LC50 (the source's name)): 53.8 µM; inhibition at 10 µM ([14]; Homo sapiens, 10 μM single dose, SN12C (renal cancer), read-out: growth inhibition percent (GI%)): > 100%; TGI ([14]; five-dose): 27.20 µM; GI50 ([15]; Homo sapiens, TK-10, five-dose): 14.5 µM; LC50 ([15]; Homo sapiens, TK-10, five-dose): 55.5 µM; inhibition at 10 µM ([15]; Homo sapiens, 10 μM single dose, TK-10 (renal cancer), read-out: growth inhibition percent (GI%)): > 100%; TGI ([15]; five-dose): 28.40 µM; inhibition at 10 µM [16]: > 100%; GI50 ([17]; Homo sapiens, PC-3, five-dose): 11.8 µM; CC50 ([17]; Homo sapiens, PC-3, five-dose, read-out: LC50 (the source's name)): 56.4 µM; inhibition at 10 µM ([17]; Homo sapiens, 10 μM single dose, PC-3 (prostate cancer), read-out: growth inhibition percent (GI%)): > 100%; TGI ([17]; five-dose): 25.80 µM; GI50 ([18]; Homo sapiens, DU-145, five-dose): 15 µM; CC50 ([18]; Homo sapiens, DU-145, five-dose, read-out: LC50 (the source's name)): 56 µM; inhibition at 10 µM ([18]; Homo sapiens, DU-145, read-out: growth inhibition percent (GI%)): > 100%; TGI ([18]; five-dose): 29.00 µM; inhibition at 10 µM ([19]; Homo sapiens, T47D, 10 μM single dose, T-47D (breast cancer), read-out: growth inhibition percent (GI%)): > 100%; GI50 ([19]; Homo sapiens, T47D, five-dose): 10.1 µM; CC50 ([19]; Homo sapiens, T47D, five-dose, read-out: LC50 (the source's name)): 61 µM; TGI ([19]; five-dose): 24.80 µM; GI50 [20, 21]: 6.71 µM; LC50 [20, 21]: 51.6 µM; inhibition at 10 µM ([20]; Homo sapiens, 10 μM single dose, MDA-MB-468 (breast cancer), read-out: growth inhibition percent (GI%)): > 100%; TGI ([20]; five-dose): 21.30 µM
